Assay results published in patent US20230304010A1, “COMPOSITIONS AND METHODS FOR TREATING VIRAL INFECTIONS” (priority 2020, published 2023).
Like-named read-outs stand apart in the source and are kept apart here. Ends that are not written are not given here.

How the values were obtained:
in vitro = details: uninfected Vero E6 cells
[1] = Nanoparticle formation of peptides with ADGN-106: mean size and polydispersity (Zetasizer); assay type: physicochemical; details: 25° C.; for Mean Size (nm): peptide/ADGN-106 complexes; for PI: polydispersity index of peptide/ADGN-106 complexes
Text: We then tested the ability of the different peptides to form nanoparticle organization in the presence of ADGN-106 or ADGN-100 peptide. […] Peptides were complexed with 5 or 10 molar excess of ADGN-106.

[2] = biological target: SARS-CoV-2 Spike: ACE2 interaction (UniProt P0DTC2+Q9BYF1); assay: biochemical; assay type: binding
[3] = biological target: ACE2:SARS-CoV-2 Spike interaction (UniProt P0DTC2+Q9BYF1); assay: biochemical; assay type: binding
[4] = tested on: SARS-CoV-2 Nucleocapsid gene; assay type: cell-based
Vero E6 cells = details: uninfected Vero E6 cells, 0.5 µM

Chain of SARS-CoV-2 Spike: ACE2 interaction (Q9BYF1 18-740, one chain of several): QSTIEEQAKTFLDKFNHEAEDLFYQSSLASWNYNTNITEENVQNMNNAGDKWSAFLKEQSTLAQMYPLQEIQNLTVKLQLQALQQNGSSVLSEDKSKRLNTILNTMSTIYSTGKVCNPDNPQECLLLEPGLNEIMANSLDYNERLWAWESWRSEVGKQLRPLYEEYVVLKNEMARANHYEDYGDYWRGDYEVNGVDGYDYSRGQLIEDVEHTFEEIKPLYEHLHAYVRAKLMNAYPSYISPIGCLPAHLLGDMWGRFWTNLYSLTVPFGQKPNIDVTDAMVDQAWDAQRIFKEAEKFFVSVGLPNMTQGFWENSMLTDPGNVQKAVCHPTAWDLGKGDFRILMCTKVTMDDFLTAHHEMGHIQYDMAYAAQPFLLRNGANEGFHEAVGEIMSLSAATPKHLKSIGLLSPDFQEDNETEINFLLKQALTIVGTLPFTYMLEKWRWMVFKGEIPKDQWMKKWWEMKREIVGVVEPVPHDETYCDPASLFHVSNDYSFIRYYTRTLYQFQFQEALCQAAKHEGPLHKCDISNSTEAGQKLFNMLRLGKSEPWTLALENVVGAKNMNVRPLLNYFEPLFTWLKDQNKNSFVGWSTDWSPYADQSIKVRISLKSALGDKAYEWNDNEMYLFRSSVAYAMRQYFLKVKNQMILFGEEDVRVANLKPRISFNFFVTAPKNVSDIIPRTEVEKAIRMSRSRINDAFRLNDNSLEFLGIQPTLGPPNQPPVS
Chain of ACE2:SARS-CoV-2 Spike interaction (Q9BYF1 18-740, one chain of several): as above

## CC(C)C[C@H](NC(=O)[C@H](C)NC(=O)[C@H](CCCNC(=N)N)NC(=O)[C@H](Cc1c[nH]c2ccccc12)NC(=O)[C@@H](N)CC(C)C)C(=O)N[C@@H](Cc1c[nH]c2ccccc12)C(=O)N[C@@H](CCCNC(=N)N)C(=O)N[C@@H](CC(C)C)C(=O)N[C@@H](Cc1c[nH]c2ccccc12)C(=O)N[C@@H](CCCNC(=N)N)C(=O)N[C@@H](CO)C(=O)N[C@@H](CC(C)C)C(=O)N[C@@H](Cc1c[nH]c2ccccc12)C(=O)N[C@@H](CCCNC(=N)N)C(=O)N[C@@H](CC(C)C)C(=O)N[C@@H](CC(C)C)C(=O)N[C@@H](Cc1c[nH]c2ccccc12)C(=O)N[C@@H](CCCCN)C(=O)O [ADGN-106, reference compound]
In vitro
  CC50: 356000 ± 64000 nM
  viability at 0.5 µM: 84%

## CC(=O)N[C@@H](Cc1ccc(O)cc1)C(=O)N[C@@H](Cc1ccccc1)C(=O)N1CCC[C@H]1C(=O)N[C@@H](CC(C)C)C(=O)N[C@@H](CCC(N)=O)C(=O)N[C@@H](CO)C(=O)N[C@@H](Cc1ccc(O)cc1)C(=O)NCC(=O)N[C@@H](Cc1ccccc1)C(=O)N[C@@H](CCC(N)=O)C(=O)N1CCC[C@H]1C(=O)N[C@H](C(=O)N[C@@H](CC(N)=O)C(=O)NCC(=O)N[C@H](C(=O)NCC(=O)N[C@@H](Cc1ccc(O)cc1)C(=O)N[C@@H](CCC(N)=O)C(=O)NCCCCC(=O)N[C@@H](CC(C)C)C(=O)N[C@@H](Cc1c[nH]c2ccccc12)C(=O)N[C@@H](CCCNC(=N)N)C(=O)N[C@@H](C)C(=O)N[C@@H](CC(C)C)C(=O)N[C@@H](Cc1c[nH]c2ccccc12)C(=O)N[C@@H](CCCNC(=N)N)C(=O)N[C@@H](CC(C)C)C(=O)N[C@@H](Cc1c[nH]c2ccccc12)C(=O)N[C@@H](CCCNC(=N)N)C(=O)N[C@@H](CO)C(=O)N[C@@H](CC(C)C)C(=O)N[C@@H](Cc1c[nH]c2ccccc12)C(=O)N[C@@H](CCCNC(=N)N)C(=O)N[C@@H](CC(C)C)C(=O)N[C@@H](CC(C)C)C(=O)N[C@@H](Cc1c[nH]c2ccccc12)C(=O)N[C@@H](CCCCN)C(N)=O)C(C)C)[C@@H](C)O [Seq19]
[1]
  Mean Size (nm): 37.2 ± 5 nm
  PI: 0.24
[2]
  blocked SARS-CoV-2 Spike: ACE2 interaction: blocked
[2]; SARS-CoV-2 Spike:ACE2 IC50
  IC50: 90.6 nM
In vitro
  viability at 0.5 µM: 87%
SARS-CoV-2
  Residual Infection (%): 90%
[3]
  blocked ACE2:SARS-CoV-2 Spike interaction: blocked
[3]; ACE2:SARS-CoV-2 Spike IC50
  IC50: 349 ± 26 nM

## CC(=O)N[C@@H](CCCCN)C(=O)N[C@H](C(=O)N[C@@H](Cc1ccccc1)C(=O)N[C@@H](CC(C)C)C(=O)N[C@@H](CC(=O)O)C(=O)N[C@@H](CCCCN)C(=O)N[C@@H](Cc1ccccc1)C(=O)N[C@@H](CC(N)=O)C(=O)N[C@@H](Cc1c[nH]cn1)C(=O)N[C@@H](CCC(=O)O)C(=O)N[C@@H](C)C(=O)N[C@@H](CCC(=O)O)C(=O)N[C@@H](CC(=O)O)C(=O)N[C@@H](CC(C)C)C(=O)N[C@@H](Cc1ccccc1)C(=O)NCCCCCC(=O)N[C@@H](CC(C)C)C(=O)N[C@@H](Cc1c[nH]c2ccccc12)C(=O)N[C@@H](CCCNC(=N)N)C(=O)N[C@@H](C)C(=O)N[C@@H](CC(C)C)C(=O)N[C@@H](Cc1c[nH]c2ccccc12)C(=O)N[C@@H](CCCNC(=N)N)C(=O)N[C@@H](CC(C)C)C(=O)N[C@@H](Cc1c[nH]c2ccccc12)C(=O)N[C@@H](CCCNC(=N)N)C(=O)N[C@@H](CO)C(=O)N[C@@H](CC(C)C)C(=O)N[C@@H](Cc1c[nH]c2ccccc12)C(=O)N[C@@H](CCCNC(=N)N)C(=O)N[C@@H](CC(C)C)C(=O)N[C@@H](CC(C)C)C(=O)N[C@@H](Cc1c[nH]c2ccccc12)C(=O)N[C@@H](CCCCN)C(N)=O)[C@@H](C)O [Seq34]
[2]; SARS-CoV-2 Spike:ACE2 IC50
  IC50: > 1000 nM
In vitro
  viability at 0.5 µM: 98%
SARS-CoV-2
  Residual Infection (%): 100%
[3]; ACE2:SARS-CoV-2 Spike IC50
  IC50: > 1000 nM

## CSCC[C@H](NC(=O)[C@H](CC(N)=O)NC(C)=O)C(=O)N[C@H](C(=O)N[C@@H](CCC(N)=O)C(=O)NCC(=O)N[C@@H](Cc1ccccc1)C(=O)N[C@@H](Cc1c[nH]c2ccccc12)C(=O)N[C@@H](CCC(=O)O)C(=O)N[C@@H](CC(N)=O)C(=O)N1CCC[C@H]1C(=O)NCC(=O)NCC(=O)N1CCC[C@H]1C(=O)N[C@H](C(=O)N[C@@H](C)C(=O)N[C@@H](Cc1c[nH]c2ccccc12)C(=O)N[C@@H](CC(=O)O)C(=O)N[C@@H](CC(C)C)C(=O)NCC(=O)N[C@@H](CCCCN)C(=O)NCCCCCC(=O)N[C@@H](CC(C)C)C(=O)N[C@@H](Cc1c[nH]c2ccccc12)C(=O)N[C@@H](CCCNC(=N)N)C(=O)N[C@@H](C)C(=O)N[C@@H](CC(C)C)C(=O)N[C@@H](Cc1c[nH]c2ccccc12)C(=O)N[C@@H](CCCNC(=N)N)C(=O)N[C@@H](CC(C)C)C(=O)N[C@@H](Cc1c[nH]c2ccccc12)C(=O)N[C@@H](CCCNC(=N)N)C(=O)N[C@@H](CO)C(=O)N[C@@H](CC(C)C)C(=O)N[C@@H](Cc1c[nH]c2ccccc12)C(=O)N[C@@H](CCCNC(=N)N)C(=O)N[C@@H](CC(C)C)C(=O)N[C@@H](CC(C)C)C(=O)N[C@@H](Cc1c[nH]c2ccccc12)C(=O)N[C@@H](CCCCN)C(N)=O)[C@@H](C)O)[C@@H](C)O [Seq38]
[1]
  Mean Size (nm): 39 ± 10 nm
  PI: 0.25
[2]; SARS-CoV-2 Spike:ACE2 IC50
  IC50: 214 nM
In vitro
  viability at 0.5 µM: 68%
SARS-CoV-2
  Residual Infection (%): 80%
[3]; ACE2:SARS-CoV-2 Spike IC50
  IC50: 103 ± 17 nM

## CSCC[C@H](NC(=O)[C@H](CCC(N)=O)NC(=O)[C@H](C)NC(=O)[C@H](CC(C)C)NC(=O)[C@@H](NC(=O)[C@H](CO)NC(=O)[C@H](CCC(N)=O)NC(=O)[C@H](CCC(=O)O)NC(=O)[C@H](CCCCN)NC(=O)[C@H](CC(C)C)NC(=O)[C@H](Cc1ccccc1)NC(=O)[C@H](C)NC(=O)[C@H](CO)NC(=O)[C@H](Cc1c[nH]c2ccccc12)NC(=O)[C@H](CCCCN)NC(=O)[C@@H]1CCCN1C(=O)[C@H](Cc1ccccc1)NC(=O)[C@H](CC(C)C)NC(=O)[C@H](CC(=O)O)NC(=O)[C@H](CCC(=O)O)NC(=O)[C@H](C)NC(=O)[C@H](CCC(=O)O)NC(=O)[C@H](Cc1c[nH]cn1)NC(=O)[C@H](CC(N)=O)NC(=O)[C@H](Cc1ccccc1)NC(=O)[C@H](CCCCN)NC(=O)[C@H](CC(=O)O)NC(=O)[C@H](CC(C)C)NC(=O)[C@H](Cc1ccccc1)NC(=O)[C@@H](NC(=O)[C@H](CCCCN)NC(C)=O)[C@@H](C)O)[C@@H](C)O)C(=O)N[C@@H](Cc1ccc(O)cc1)C(=O)NCC(=O)NCCCCCC(=O)N[C@@H](CC(C)C)C(=O)N[C@@H](Cc1c[nH]c2ccccc12)C(=O)N[C@@H](CCCNC(=N)N)C(=O)N[C@@H](C)C(=O)N[C@@H](CC(C)C)C(=O)N[C@@H](Cc1c[nH]c2ccccc12)C(=O)N[C@@H](CCCNC(=N)N)C(=O)N[C@@H](CC(C)C)C(=O)N[C@@H](Cc1c[nH]c2ccccc12)C(=O)N[C@@H](CCCNC(=N)N)C(=O)N[C@@H](CO)C(=O)N[C@@H](CC(C)C)C(=O)N[C@@H](Cc1c[nH]c2ccccc12)C(=O)N[C@@H](CCCNC(=N)N)C(=O)N[C@@H](CC(C)C)C(=O)N[C@@H](CC(C)C)C(=O)N[C@@H](Cc1c[nH]c2ccccc12)C(=O)N[C@@H](CCCCN)C(N)=O [Seq40]
[1]
  Mean Size (nm): 54.5 ± 14 nm
  PI: 0.31
[2]; SARS-CoV-2 Spike:ACE2 IC50
  IC50: 45.1 nM
[3]
  increase of potency/efficiency by covalent coupling to ADGN peptide: 1.4 folds
[3]; ACE2:SARS-CoV-2 Spike IC50
  IC50: 85.4 ± 12 nM

## AAGCATATTGACGCATACAAA (chemistry not given here) [DIVC-9]
[4]
  IC50: 394 nM

## Ac-EQAKTFLDKFNHEAEDLFPKWSAFLKEQSTLAQMYG [Seq27]
[1]
  Mean Size (nm): 62.1 ± 10 nm
  PI: 0.21
[2]
  folds more potent than SBP-1-ADGN-106/ADGN-106 complex: 4 folds
  folds more potent than SBP-1 coupled to ADGN-106: 3.5 folds
  folds more potent than SBP-1 peptide/ADGN-106 complex: 35 folds
  folds more potent than free SBP-1: 7 folds
[3]
  folds more potent than SBP-1-ADGN-106/ADGN-106 complex: 6 folds
  folds more potent than SBP-1 coupled to ADGN-106: 6 folds
  folds more potent than SBP-1 peptide/ADGN-106 complex: 40 folds
  folds more potent than free SBP-1: 15 folds

## Ac-G*FQPTNGVK*-Ava-LWRALWRLWRSLWRLLWK-NH2 [Seq21]
[1]
  Mean Size (nm): 78.2 ± 7 nm
  PI: 0.3
SARS-CoV-2
  Residual Infection (%): 79%
Vero E6 cells
  Cell Viability (%): 78%

## Ac-KTFLDKFNHEAEDLFPGPKWSAFLKEQSTLAQMYG [Seq28]
[1]
  Mean Size (nm): 34.6 ± 7 nm
  PI: 0.18
[2]
  folds more potent than SBP-1-ADGN-106/ADGN-106 complex: 4 folds
  folds more potent than SBP-1 coupled to ADGN-106: 3.5 folds
  folds more potent than SBP-1 peptide/ADGN-106 complex: 35 folds
  folds more potent than free SBP-1: 7 folds
In vitro
  CC50: 290000 ± 51000 nM
  viability at 0.5 µM: 78%
SARS-CoV-2
  Residual Infection (%): 10%
  fold stronger anti-SARS-CoV-2 activity than hydroxychloroquine sulfate: 250 fold
  increase of potency by pre-incubation with SARS CoV-2 prior infection: 2 factor
  inhibition of viral infection: exhibit inhibition of viral infection
[3]
  folds more potent than SBP-1-ADGN-106/ADGN-106 complex: 6 folds
  folds more potent than SBP-1 coupled to ADGN-106: 6 folds
  folds more potent than SBP-1 peptide/ADGN-106 complex: 40 folds
  folds more potent than free SBP-1: 15 folds

## Ac-S*YGFQPTNGV*-Ava-LWRALWRLWRSLWRLLWK-NH2 [Seq20]
[1]
  Mean Size (nm): 68.1 ± 5 nm
  PI: 0.25
SARS-CoV-2
  Residual Infection (%): 65%
  inhibition of viral infection: exhibit inhibition of viral infection
Vero E6 cells
  Cell Viability (%): 91%

## Ac-T*EYQAGSTK*Ava-LWRALWRLWRSLWRLLWK-NH2 [Seq16]
[1]
  Mean Size (nm): 44.2 ± 7 nm
  PI: 0.28
[2]; read-out: SARS-CoV-2 Spike:ACE2 IC50
  IC50: > 1000 nM
[3]; read-out: ACE2:SARS-CoV-2 Spike IC50
  IC50: > 10000 nM

## GACCAGGAACTAATCAGACAA (chemistry not given here) [DIVC-2]
[4]
  IC50: > 500 nM

## GACTTCCCTATGGTGCTAACA (chemistry not given here) [DIVC-4]
[4]
  IC50: 254 nM

## GCAACAATCCATGAGCAGTGC (chemistry not given here) [DIVC-10]
[4]
  IC50: 28.4 nM

## GCAACTGAGGGAGCCTTGAAT (chemistry not given here) [DIVC-1]
[4]
  IC50: > 500 nM

## GCAGACGTGGTCCAGAACAAA (chemistry not given here) [DIVC-7]
[4]
  IC50: 147 nM

## GGCTGATGAAACTCAAGCCTT (chemistry not given here) [DIVC-5]
[4]
  IC50: > 500 nM
